Test system: Plasmodium falciparum
Test: MMV: Compounds (1uM) were screened in a 72hr growth assay monitored by flow cytometry both in the presence and absence of supplemental isopentenyl pyrophosphate (IPP) 200uM. Compounds which fail to show anti-malarial activity when chemically rescued by IPP are therefore specific to the apicoplast. The values are expressed as the ratio of the corresponding activity with and without IPP, respectively.
Format: functional, W2

Work on `OC(CNC1CCCC1)Cn1c2ccccc2c2ccccc21` (configuration not stated) yielded a Ratio of 1.151.
`COc1cccc(Nc2nc(N)c3ccccc3n2)c1.Cl` was tested, and the Ratio was 0.9815.
`CCCC(c1nnnn1C1CCCCC1)N1CCN(C(=O)c2ccco2)CC1.Cl` (configuration not stated) showed a Ratio of 1.023.
In the case of `O=C(Nc1cccc(C2=NCCN2)c1)Nc1cccc(C2=NCCN2)c1` [IMIDOCARB], the Ratio is reported as 1.
`O=C(NC1CCN(Cc2ccccc2)CC1)c1cc(-c2cccnc2)nc2ccc(Cl)cc12` gave a Ratio of 0.7184.
In the case of `CCOc1ccc(Nc2ccnc3cc(Cl)ccc23)cc1`, the Ratio is reported as 0.8831.
`c1ccc(-c2ccc(-c3nc4ccccc4[nH]3)cc2)cc1` gave a Ratio of 1.5.
With `O=C(CCc1ccco1)NC1CCN(CC2(c3ccc(Cl)cc3)CCC2)CC1` the Ratio was 0.875.
`COc1ccc(NC(=O)C2c3ccccc3C(=O)N(CC(C)C)C2c2cccs2)cc1` (configuration not stated) was tested, and the Ratio was 1.197.
`CCC(c1ccccc1)c1nn2c(-c3cccs3)nnc2s1` (configuration not stated) gave a Ratio of 0.775.
In the case of `CCc1ccc(Nc2cc(C)nc3nc(C)nn23)cc1`, the Ratio is reported as 0.9802.
Compound `CCOc1ccccc1NC(=O)CN1CCN(C(=O)c2ccco2)CC1` has a Ratio of 0.906.
`COc1ccccc1CNC(=O)CCn1c(=O)[nH]c2ccsc2c1=O` gave a Ratio of 1.123.
`Clc1ccc2c(N3CCCC3)ccnc2c1` gave a Ratio of 0.8475.
`COCCNC(=O)c1ccc(OC2CCN(Cc3ccc(F)c(F)c3)CC2)c(Cl)c1` gave a Ratio of 1.063.
`O=C(NC(c1ccccc1)c1ccc2cccnc2c1O)c1ccccc1` (configuration not stated) gave a Ratio of 1.018.
Work on `COc1cc2c(cc1OC)C1=NNC(=O)C1=NC(C)(C)C2` yielded a Ratio of 1.994.
For `COc1ccc(CNC(=O)c2cc3c(=O)n4ccccc4nc3n(CCc3ccccc3)c2=N)cc1`, the Ratio was 0.8046.
Compound `O=C(Nc1ccc(Cl)cc1)N1CCN(c2ccc3nncn3n2)CC1` has a Ratio of 0.8112.
`O=C(Nc1ccc(C23CC4CC(CC(c5ccccc5)(C4)C2)C3)cc1)c1cccs1` was tested, and the Ratio was 0.9231.
Work on `Cc1cc(Nc2ccc(C)c(Cl)c2)n2nc(C(F)(F)F)nc2n1` yielded a Ratio of 0.6628.
`Cc1ccc(-c2nc3ccccc3o2)cc1NCc1cc(Cc2ccccc2)ccc1O` was tested, and the Ratio was 1.167.
In the case of `CC1CCCCN1CCCNC(=O)c1ccc2c(c1)sc1nc(-c3ccc(F)cc3)cn12` (configuration not stated), the Ratio is reported as 1.167.
For `CC1CCN(Cc2ccc(NC(=O)c3cc4ccc5cccnc5c4[nH]3)cc2)CC1`, the Ratio was 1.
Work on `Cc1ccc(-c2cc3c(SCC(=O)Nc4cc(C(F)(F)F)ccc4Cl)nccn3n2)cc1` yielded a Ratio of 0.9375.
`Cc1ccc(NC(=O)Nc2cccc(Cl)c2)cc1F` showed a Ratio of 0.9455.
`N=c1n(CCN2CCCCC2)c2ccccc2n1CC(=O)c1ccc(Cl)c(Cl)c1` gave a Ratio of 1.14.
Compound `COc1cccc(-c2nn(C)c3sc(C(=O)NCCN4CCN(c5ccccc5F)CC4)cc23)c1` has a Ratio of 0.7703.
`CCOC(=O)C1=CN(C)C=C(C(=O)OCC)C1c1cc(Br)c(OCC)c(OC)c1` was tested, and the Ratio was 1.052.
In the case of `O=C(CCl)NCCOc1ccc(Cl)cc1Cl`, the Ratio is reported as 1.041.
`COc1cccc(NC(=O)Cn2c(C)c(C#N)c3ccccc32)c1` gave a Ratio of 1.098.
Compound `Cc1cc(C)c2c(c1)OCN(Cc1ccccc1Cl)C2` has a Ratio of 0.8871.
In the case of `Cc1cccc(N2C(=O)C3C(C2=O)C2(c4ccccc4)C(=O)C3(c3ccccc3)C(c3ccc4c(c3)OCO4)=C2c2ccc3c(c2)OCO3)c1` (configuration not stated), the Ratio is reported as 0.9857.
In the case of `COc1ccc(C(=O)Nc2nonc2-c2ccc(OC)c(OC)c2)cc1Cl`, the Ratio is reported as 0.8261.
In the case of `CC(C)OCc1cc(CN2CCN(c3cccc(Cl)c3)CC2)c(O)c2ncccc12`, the Ratio is reported as 1.015.
`COc1ccc(-c2nc(N3CCN(C(=O)C4CCCCC4)CC3)c3c4c(sc3n2)CCCC4)cc1` gave a Ratio of 1.015.
For `CCOc1cc2c(cc1OCC)C(c1cc(Cl)ccc1O)NCC2` (configuration not stated), the Ratio was 1.123.
`Cc1ccc(C(=O)c2oc3ccc4c(C)cc(=O)oc4c3c2C)cc1` gave a Ratio of 1.018.
`COc1ccc(C(=O)C2CC2c2ccc(Cl)cc2)cc1` (configuration not stated) gave a Ratio of 1.308.
`COc1ccc(-c2c(C)nn3c(N)c(C#N)cnc23)cc1OC` gave a Ratio of 0.831.
Compound `O=c1c2c([nH]c3ccccc13)CCCC2` has a Ratio of 0.8986.
`COc1ccc(N2CCN(C(CNC(=O)CC(C)(C)C)c3ccc4c(c3)OCO4)CC2)cc1` (configuration not stated) gave a Ratio of 0.8841.
Work on `Cc1ccccc1OCCSc1nc2ccc(NC(=O)c3cccs3)cc2s1` yielded a Ratio of 0.9467.
With `COc1ccc(Nc2nc(N/N=C/c3ccc(O)cc3)nc(Nc3ccc([N+](=O)[O-])cc3)n2)cc1` the Ratio was 1.812.
Work on `Oc1c(C(Nc2ccccn2)c2cccc(Oc3ccccc3)c2)ccc2cccnc12` (configuration not stated) yielded a Ratio of 0.7317.
Compound `O=[N+]([O-])c1ccc(C=NNc2nc3ccccc3[nH]2)cc1` has a Ratio of 1.132.
`CC1(c2ccccc2)Nc2ccccc2-c2nc3ccccc3n21` (configuration not stated) gave a Ratio of 1.062.
In the case of `CC(=O)c1ccc(NC(=O)CSc2nc(-c3ccccc3Cl)ns2)cc1`, the Ratio is reported as 1.02.
For `CCOc1ccc(CN2CCN(CC(O)COc3ccc(OCC(O)CN4CCN(Cc5ccc(OCC)cc5)CC4)cc3)CC2)cc1` (configuration not stated), the Ratio was 0.9863.
Work on `Cn1c(C(=O)c2cccc3ccccc23)nc2ccccc21` yielded a Ratio of 0.8689.
In the case of `CC(=O)NCCc1nc2ccccc2n1Cc1ccc(C(C)C)cc1`, the Ratio is reported as 1.018.
`CC1CC2=C(CC1CNCCCN(C)C)C(C)(C)CCC2` (configuration not stated) gave a Ratio of 0.931.
Work on `CC(C)(C)c1ccc2c(c1)CN(Cc1ccc(Cl)cc1)CO2` yielded a Ratio of 0.8966.
For `C[n+]1c2ccccc2nc2ccc(NCCO)cc21`, the Ratio was 0.9178.
In the case of `COCCN(C(=O)Cc1cccs1)C(C(=O)NCc1ccc(OC)cc1)c1ccc(C(C)C)cc1` (configuration not stated), the Ratio is reported as 0.8315.
`CCN(Cc1ccccc1)C1CCN(Cc2cc(Br)ccc2O)CC1.O=C(O)C(=O)O` was tested, and the Ratio was 0.9701.
`Oc1ccc2ccccc2c1CNc1nc2ccccc2[nH]1` was tested, and the Ratio was 0.578.
Work on `CCN(CC)CCCNc1ccnc2cc3ccccc3cc12` yielded a Ratio of 0.9344.
`COc1ccc2c(=O)cc(C(Cl)(Cl)Cl)oc2c1` gave a Ratio of 0.7571.
For `Nc1ccc(-c2nc3cc(Oc4ccc(Oc5ccc6[nH]c(-c7ccc(N)cc7)nc6c5)cc4)ccc3[nH]2)cc1`, the Ratio was 1.143.
Work on `COc1ccc(-c2cc3c(SCC(=O)Nc4cc(C(F)(F)F)ccc4Cl)nccn3n2)cc1` yielded a Ratio of 0.9714.
`O=C(Nc1ccc(F)c(Cl)c1)Nc1ccc(Cl)c(Cl)c1` gave a Ratio of 1.268.
With `Cc1cc(C)cc(Nc2cc(C)nc3nc(C(F)(F)F)nn23)c1` the Ratio was 0.8519.
With `COc1ccc(-c2cn3c(C(=O)Nc4ccccc4Cl)c(-c4ccccc4)c4c3n2CCCC4)cc1` the Ratio was 1.057.
For `CCc1ccc(CNCC(O)c2ccccc2)cc1.Cl` (configuration not stated), the Ratio was 1.061.
With `CCOC(=O)c1c(NC(=O)c2ccccc2)sc2c(O)c(CN(CC)CC)ccc12` the Ratio was 0.8592.
`COc1ccc2nc(C)cc(Nc3cccc(O)c3)c2c1.Cl` showed a Ratio of 1.191.
Work on `O=C(Nc1cccc(C(F)(F)F)c1)c1cc(Cl)ccc1O` yielded a Ratio of 0.9697.
For `CCCc1c(C)nc2ccc(Br)cc2c1O`, the Ratio was 1.
`Cc1ccc2nc(C)cc(Nc3cccc(C(F)(F)F)c3)c2c1.Cl` was tested, and the Ratio was 0.875.
Work on `CCOc1c(Br)cc(C2C(C(=O)OC)=CN(C)C=C2C(=O)OC)cc1OC` yielded a Ratio of 1.02.
Work on `Cc1sc2ncnc(Sc3nc4ccccc4[nH]3)c2c1C` yielded a Ratio of 0.9273.
In the case of `COC(=O)c1ccc(C2C3=C(O)CC(c4ccc(F)cc4)CC3=Nc3ccccc3N2C(=O)c2ccccc2)cc1` (configuration not stated), the Ratio is reported as 0.9016.
`COc1cccc(C=Cc2nc(=O)c3ccccc3o2)c1OC` was tested, and the Ratio was 0.4632.
`CCCN(CCC)CCCNC(=O)c1cc2c(-c3ccc(OC)c(OC)c3)nn(C)c2s1` was tested, and the Ratio was 1.186.
For `FC(F)(F)c1cccc(CNC2CCN(CCc3ccccc3)CC2)c1`, the Ratio was 0.9344.
`COc1ccc(CCN2CCC(CN(C)Cc3cnn(-c4ccccc4)c3)CC2)cc1` was tested, and the Ratio was 0.8571.
`CCCCc1c(CCC)c(=N)c2ccccc2n1C.I` gave a Ratio of 0.7821.
For `FC(F)(F)c1cccc(Nc2nc(-c3ccccc3)nc3ncccc23)c1`, the Ratio was 0.7857.
`COc1cc(C(=O)ON=C(N)Cc2cccc3ccccc23)cc(OC)c1OC` gave a Ratio of 1.265.
With `O=C(Nc1ccc(CN2CCOCC2)cc1)c1ccc(-c2ccc(Br)cc2)o1` the Ratio was 0.6519.
In the case of `CC(C)(C)c1ccc(C(=O)Nc2nc3ccccc3s2)cc1`, the Ratio is reported as 0.8302.
`CCN(CC)CCCNc1nc(-c2ccc(Cl)cc2)nc2ccccc12` was tested, and the Ratio was 1.055.
In the case of `Cc1cc(Nc2ccc(OCc3ccccc3)cc2)nc2cc(O)ccc12`, the Ratio is reported as 0.8026.
For `CCC(C)NCC(O)(c1ccc(Cl)cc1)c1ccc(Cl)cc1` (configuration not stated), the Ratio was 1.02.
For `CCOC(=O)c1cnc2ccc(OC)cc2c1Nc1ccc(N2CCN(C)CC2)cc1`, the Ratio was 0.9667.
Work on `COc1ccccc1C(=O)ON=C(N)Cc1cccc2ccccc12` yielded a Ratio of 1.06.
`OC(CNCC1CCCO1)Cn1c2ccc(Cl)cc2c2cc(Cl)ccc21` (configuration not stated) showed a Ratio of 0.8732.
Work on `Cc1c(C)n(CC(O)CNC2CCCCC2C)c2ccccc12` (configuration not stated) yielded a Ratio of 0.9649.
`Cc1ccc(Cn2c(N3CCC(C(=O)NCc4cccs4)CC3)nc3ccccc32)cc1` was tested, and the Ratio was 1.032.
`Cc1ccc(N2C3c4ccccc4N(S(=O)(=O)c4ccc(C)cc4)C2c2ccccc2N3S(=O)(=O)c2ccc(C)cc2)cc1` was tested, and the Ratio was 0.3473.
`CCOc1c(Cl)cc(CNC(C)C(O)c2ccccc2)cc1OC` (configuration not stated) showed a Ratio of 1.031.
`OC(CNC1CCCCC1)Cn1c2ccccc2c2ccccc21` (configuration not stated) was tested, and the Ratio was 1.115.
With `Cc1cc(N2CCCC2)nc(Nc2ccc(NC(=O)CCc3ccccc3)cc2)n1` the Ratio was 0.9077.
In the case of `Cc1ccc(CN2CCC(C(=O)Nc3ccc(-c4cc5ccccc5[nH]4)cc3)CC2)o1`, the Ratio is reported as 0.8636.
With `Cl.N=c1n(CCN2CCCCC2)c2ccccc2n1CC(O)c1cccc(Br)c1` (configuration not stated) the Ratio was 0.8955.
Compound `COc1ccc(C2c3ccc4ccccc4c3Oc3ncn(CCCN(C)C)c(=N)c32)cc1` (configuration not stated) has a Ratio of 1.078.
Compound `O=C(NCc1ccco1)C1CCN(S(=O)(=O)c2ccc(Br)cc2)CC1` has a Ratio of 0.7733.
`COc1cc(CNCCc2ccc(Cl)cc2)cc(OC)c1O` was tested, and the Ratio was 0.9459.
Compound `CN(C)c1ccc(C=Cc2nc(=O)c3ccccc3o2)cc1` has a Ratio of 0.8302.
`CCc1ccc(Nc2cc(C)c3ccc(O)cc3n2)cc1.Cl` showed a Ratio of 0.7867.
With `CN1C=C(c2ccc3ccccc3n2)C(c2c[nH]c3ccccc23)c2ccccc21` (configuration not stated) the Ratio was 1.295.
Work on `COc1ccc(C(=O)Nc2ccc(Cl)cc2C(=O)Nc2ccncc2)cc1` yielded a Ratio of 0.8104.
`N#Cc1nc(Cc2cccc3ccccc23)oc1N1CCN(C(c2ccccc2)c2ccccc2)CC1` gave a Ratio of 1.062.
In the case of `O=C1c2ccccc2C2=Nc3ccccc3SC(c3cccc(F)c3)C12` (configuration not stated), the Ratio is reported as 0.8676.
`CCCN(CCC)CC(O)COc1ccccc1C(=O)Nc1ccccc1` (configuration not stated) gave a Ratio of 0.8553.
`COc1ccc(-n2ccnc2SCC(=O)Nc2cc(C)ccc2C)c(OC)c1` gave a Ratio of 0.75.

From ChEMBL document CHEMBL2448809, “UCSF DeRisi Lab MMV Box Apicoplast Screening”
